Data as given in US20020182614A1, “Expression analysis of inhibitor of differentiation nucleic acids and polypeptides useful in the diagnosis and treatment of prostate cancer” (priority 2000, published 2002).

Tests used:
PSA [1] = details: LNCaP cells, mRNA
PSA [2] = tested on: PSA
ID-1 = details: LNCaP cells, in the presence of androgen
LNCaP cells = tested on: LNCaP cells
Protocol: Human prostatic cancer cell lines LNCaP, DU-145, PC-3, and Tsu-prl were obtained from ATCC. LNCaP cancer cells were maintained in humidified atmosphere of 5% CO2 in air in RPMI 1640 medium supplemented with 10% fetal calf serum (Life Technologies, Inc, Rockville, Md.), 3 mM L-glutamine, 100 μg/ml streptomycin and 100 units/ml penicillin. Other lines were maintained in DMEM containing 3 mM L-glutamine, 100 μg/ml streptomycin, 100 units/ml penicillin, and 10% FCS in humidified atmosphere of 5% CO2. To examine the effects of steroids, cells were cultured in RPMI 1640 medium containing 5% FCS treated with dextran coated charcoal (Hyclone, Logan, Utah) for 24 hs before treatment. Cells were grown in the absence or presence of 10 nM DHT for 0, 2, 4, 6, 12, 24, 48, and 72 hs. They were collected and frozen at each time point. Two hundred μl of medium were collected from each flask for PSA assay.
To verify the effect of DHT on the growth of LNCaP cells, cells at 3,000 cells/well were plated in 96-well plates for 24 hs before treatment with DHT. After 72 hs, MTT was added to each well and incubated at 37° C. for four hs. At the end of incubation, the supernatant was removed and 100 μl DMSO was added to each well to dissolve […]. Plates were subsequently read in a plate reader at […].

ID-3 = details: LNCaP cells, in the presence of androgen

C[C@]12CCC(=O)C[C@@H]1CC[C@@H]1[C@@H]2CC[C@]2(C)[C@@H](O)CC[C@@H]12 [DHT, dihydrotestosterone]
PSA expression increase relative to control (PSA [1]; 12 hours): 3 fold
PSA expression induction relative to control (PSA [1]; 72 hours): approximately 4 fold
PSA production (PSA [2]): increased in a dose-dependent manner
time at which PSA signal was first detected (PSA [2]): 12 h
time of maximal PSA level (PSA [2]): about 48 hs
ID-1 expression level (ID-1): reduced
growth-stimulatory effect (LNCaP cells; 10 nM DHT): robust growth-stimulatory effect
growth of LNCaP cells (LNCaP cells; MTT assay, FIG. 1A): stimulated
ID-3 expression level (ID-3): reduced
